Results: a melting point compilation (Tetko et al.; mined from patent text by program, amines drawn as free bases though some values may be those of a salt)

Row | Compound | melting point [°C]
1 | CCc1cc2c(s1)-n1c(C)nnc1C(CCCC(=O)Nc1ccccc1)N=C2c1ccc(Cl)cc1 (stereo not drawn) | 238 to 240
2 | Cc1cc(Cl)cc2c(-c3ccc(Cl)cc3)onc12 | 151 to 152
3 | O=C(NC1CC2C=CC1C2)n1cc(F)c(=O)[nH]c1=O (stereo not drawn) | 180
4 | O=C(O)c1nc2cc(Oc3cccc([N+](=O)[O-])c3)c([N+](=O)[O-])cc2[nH]c1=O | 198 to 200
5 | O=C1OC(=O)c2c1cccc2-c1ccccc1 | 148 to 149
6 | CCOC(=O)CNC1=NS(=O)(=O)c2ccccc21 | 166 to 167
7 | CC(C)(C)c1cc(Cc2cc(C(C)(C)C)cc(C(C)(C)C)c2O)c(O)c(-n2nc3ccccc3n2)c1 | 208
8 | CC(=O)C[C@@H](Cc1ccccc1)C(=O)O | 71 to 73
9 | CC(C)(C)OC(=O)N[C@@H]1C(=O)N(O)C1(C)C | 148 to 149
10 | CSCCOc1ccc(OCC(O)CO)cc1 (stereo not drawn) | 59 to 61
11 | COc1ccc(CCN(C)CCCCc2ccc(NC(=O)c3cccc4c(=O)c5cccc(OC)c5[nH]c34)cc2)cc1 | 182
12 | CCOCC1(O)CCN(c2ccc(N3C[C@H](CNC(C)=O)OC3=O)cc2F)CC1 | 76 to 78
13 | CC(=O)Nc1ccc(C(=O)C=CC(=O)O)cc1 | 206 to 207
14 | COC(=O)c1sccc1S(=O)(=O)Nc1onc(C)c1C | 113 to 116
15 | Clc1cccc(Oc2ccc(OCc3cc(C4CC4)no3)cc2)n1 | 128 to 130
16 | O=C(C=C1C(=O)N(c2ccccc2)C(=O)N1c1ccccc1)Nc1ccccc1 | 214
17 | CCCCCCCCCCCCCCOc1ccc(CC(=O)OC)cc1Cl | 24 to 25
18 | CC(=O)OC1COc2ccc3ncccc3c2C1 (stereo not drawn) | 125 to 127
19 | CSC(=N)Nc1ccc(Cl)c(Cl)c1 | 166
20 | Cc1cc(C(N)=O)ncc1C(c1c(F)ccc(F)c1F)S(=O)(=O)CCC(C)(F)F (stereo not drawn) | 165 to 166
21 | OC(CNCc1ccccc1)c1ccc(OCc2ccccc2)c(F)c1 (stereo not drawn) | 113 to 114
22 | NS(=O)(=O)c1cccc(C(=O)CCl)c1 | 118
23 | C[C@@H](n1cnc2cc(-c3ccc(C(=N)NC#N)cc3)sc2c1=O)[C@](O)(Cn1cncn1)c1ccc(F)cc1F | 275 to 278
24 | O=C1CCOc2ccc(OCc3ccccc3)cc21 | 107 to 108
25 | N#CC1CCN(CCc2ccc(F)cc2)CC1 | 47 to 48

Row | Compound | melting point [°C]
26 | CCCNC(=O)[C@H](C)C[C@H](O)[C@H](CC1CCCCC1)NC(=O)OC(C)(C)C | 115 to 116
27 | CCn1cc(C(=O)O)c(=O)c2cc(F)c(N3CCNC(c4cc5cc(Cl)ccc5o4)C3)cc21 (stereo not drawn) | 262 to 263
28 | CCCc1c(O)c(C(C)=O)cc2c(C)cc(C(=O)OCC)nc12 | 150 to 151
29 | CCOC(=O)c1cc2cc(F)c(F)cc2nc1Cl | 108
30 | COc1ccc(C(=O)NCCCCCCCCCNC(=O)c2ccc(OC)cc2)cc1 | 156 to 157
31 | CNc1nc(-c2ccc(OC)cc2)c(-c2cccnc2)s1 | 158 to 159
32 | COc1ccc(C2SCc3c(sc(N)c3C(=O)c3ccc(Cl)cc3)S2)cc1 (stereo not drawn) | 158 to 160
33 | O=C(O)CSc1nc(Cl)cc(NCc2ccc(Cl)c(Cl)c2)n1 | 64 to 69
34 | CCC[C@H]1CC[C@H](OC(=O)c2ccc(OCC)c(F)c2F)CC1 | 93
35 | CN(C)CCC1CSc2c(C(=O)O)c(=O)c3cc(F)c(N4CCN(C)CC4)cc3n21 (stereo not drawn) | 221 to 223
36 | CC(c1cccnc1)c1c[nH]c(=S)[nH]c1=O (stereo not drawn) | 225 to 228
37 | COc1ccc(Cn2nnnc2C(=O)Nc2cc(C(F)(F)F)cc(NC(=O)c3nnnn3Cc3ccc(OC)cc3)c2Cl)cc1 | 185 to 186
38 | Oc1cc2c(cc1F)[C@H](O)[C@H](N1CCC(O)(c3ccc(F)cc3)CC1)CO2 (relative stereo) | 160 to 161
39 | Cn1ncc(C(N)=O)c1-c1ccco1 | 116
40 | Cc1cccc(NC(=O)NCC(=O)N(CC(=O)OC(C)(C)C)c2ccccc2Nc2ccccc2)c1 | 180
41 | CN1N=C2C(=Cc3ccccc3)CNCC2C1c1ccccc1 (stereo not drawn) | 115 to 117
42 | OCc1cc2ccccc2nc1I | 189 to 190
43 | Cc1cccc(C(=O)c2ccccc2F)c1N | 65.5 to 67.5
44 | CCCCOCc1cnc2nc(N)[nH]c(=O)c2n1 | > 300
45 | FC(F)(F)c1cccc(NC2CCN(c3ccc(Cl)nn3)CC2)c1 | 118
46 | CC(C)(C)c1ccnc(C(=O)c2[nH]c3cc(Cl)ccc3c2CC(=O)O)c1 | 203 to 205
47 | CCCCCCCCCC1OC1C(=O)O (stereo not drawn) | 56 to 57
48 | O=c1[nH]c(CCCOc2cccc(CN3CCCCC3)c2)ncc1Cc1ccnc(O)c1 | 167 to 169
49 | Cc1ccccc1Oc1cccc(CC(=O)O)c1O | 116 to 117
50 | O=Cc1cc2ccc3c4ccccc4ccc3c2o1 | 123

Row | Compound | melting point [°C]
51 | COC1N=C(c2ccccc2)c2cc(Cl)ccc2-n2nc(C(N)=O)nc21 (stereo not drawn) | 264 to 267
52 | CCCC12CCC3C4CCCC=C4CCC3C1CCC2O (stereo not drawn) | 115 to 119
53 | COc1cc2cc(C(=O)N3CC(CCl)c4c3cc(N)c3ncccc43)[nH]c2c(OC)c1OC (stereo not drawn) | 225 to 227
54 | CNC(=S)[C@]1(c2cccnc2)CCCC[C@H]1NOCc1c(F)c(F)c(F)c(F)c1F | 57 to 60
55 | O=C(Nc1c[nH]nc1C(=O)NCC(F)(F)F)c1ccccc1 | 203 to 206
56 | COc1cc2cc(COC(C)=O)c(COC(C)=O)c(C)c2cc1OC | 130 to 131
57 | O=C(O)C(Cl)=C(Cl)C(=O)N(Cc1ccco1)Cc1ccco1 | 149
58 | O=C(NC(=O)C(c1ccccc1)c1ccccc1)OCc1ccccc1 | 100 to 101
59 | NS(=O)(=O)Cc1cccc(NC(=O)c2cnn3c(C(F)(F)F)cc(-c4ccc(C(F)(F)F)cc4)nc23)c1 | 298
60 | Cn1c(=O)c(=NO)nc(-c2ccccc2)c2cnccc21 | 223 to 224
61 | O=C1c2ccccc2Cc2c(O)cccc21 | 230 to 233
62 | Cc1c(C)c(C)c(S(=O)(=O)NC(Cc2nc3ccc(C=CCNC4=NCCN4)cc3c(=O)[nH]2)C(=O)O)c(C)c1C (stereo not drawn) | 131 to 135
63 | O=C(O)c1ccc2[nH]c(C(=O)O)cc2c1 | 314 to 315
64 | COC(=O)c1cccc2nc(SCCN3CCN(CC(=O)Nc4c(C(C)C)cccc4C(C)C)CC3)oc12 | 159 to 161
65 | CN1CCN(c2ccc(S(=O)(=O)Oc3ccc(F)cc3)cc2)C1=O | 170 to 172
66 | Cc1cc(-c2noc(C(F)(F)F)n2)cc(C)c1OCCCc1ccc(Cl)nc1 | 89 to 91
67 | CSC(=C(N)c1ccc2oc(C)cc2c1)S(C)=O (stereo not drawn) | 185 to 186
68 | COc1ccc(-c2cccc(C(N)=O)c2)cc1OC1CCCC1 | 133 to 135
69 | COc1ccc(S(C)(=O)=O)cn1 | 85 to 86.5
70 | COCCOc1ccc(CCCOC(=O)N2CCOCC2)c(Oc2ncc(C(F)(F)F)cc2Cl)c1 | 82.3 to 82.4
71 | C=CCOc1noc2ccc(N3C(=O)C4=C(CCCC4)C3=O)cc12 | 88 to 89
72 | COC1=C(OC)C(=O)C(CCCCCC[C@H]2CC[C@H](O)CC2)=C(C)C1=O | 33.5 to 35.5
73 | O=C(Nc1nccs1)c1c(C(F)(F)F)nc(-c2cccs2)c(-c2ccccc2)c1O | 136
